Test results: US20250340552A1, “COMPOUNDS, COMPOSITIONS AND METHODS OF TREATING DISORDERS” (HOTSPOT THERAPEUTICS, INC., priority 2022, published 2025)
Where two headings read alike, the source gives them in different places.

Biological target: T1, Cbl-B (Homo sapiens, UniProt Q13191)
T1 construct: MSD-Based Assay for Degradation of Cbl-B in THP-1 Cells; endogenous in cells; host or cells: THP-1 (title) / Jurkat (protocol text)
Experiment: MSD-based assay for degradation of Cbl-B in THP-1 cells
Format: cell-based
How it was run: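 THP-1 cells were treated with compound for 24 h at 37 °C. Cbl-B in lysates was quantified by MSD sandwich immunoassay, with anti-Cbl-B capture antibody at 1 ug/mL and SULFO-TAG anti-rabbit detection. Maximal degradation (Dmax) was binned as A >70%, B 50–70%, C 30–50%, D <30%.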

[1] = Cbl-B degradation, Jurkat cells seeded (heading: THP-1 cells), 24 hours incubation, MSD readout
[2] = Cbl-B degradation, Jurkat cells seeded (heading: THP-1 cells), 24 hours incubation, MSD readout, read-out: Dmax

T1 sequence (Q13191 whole entry): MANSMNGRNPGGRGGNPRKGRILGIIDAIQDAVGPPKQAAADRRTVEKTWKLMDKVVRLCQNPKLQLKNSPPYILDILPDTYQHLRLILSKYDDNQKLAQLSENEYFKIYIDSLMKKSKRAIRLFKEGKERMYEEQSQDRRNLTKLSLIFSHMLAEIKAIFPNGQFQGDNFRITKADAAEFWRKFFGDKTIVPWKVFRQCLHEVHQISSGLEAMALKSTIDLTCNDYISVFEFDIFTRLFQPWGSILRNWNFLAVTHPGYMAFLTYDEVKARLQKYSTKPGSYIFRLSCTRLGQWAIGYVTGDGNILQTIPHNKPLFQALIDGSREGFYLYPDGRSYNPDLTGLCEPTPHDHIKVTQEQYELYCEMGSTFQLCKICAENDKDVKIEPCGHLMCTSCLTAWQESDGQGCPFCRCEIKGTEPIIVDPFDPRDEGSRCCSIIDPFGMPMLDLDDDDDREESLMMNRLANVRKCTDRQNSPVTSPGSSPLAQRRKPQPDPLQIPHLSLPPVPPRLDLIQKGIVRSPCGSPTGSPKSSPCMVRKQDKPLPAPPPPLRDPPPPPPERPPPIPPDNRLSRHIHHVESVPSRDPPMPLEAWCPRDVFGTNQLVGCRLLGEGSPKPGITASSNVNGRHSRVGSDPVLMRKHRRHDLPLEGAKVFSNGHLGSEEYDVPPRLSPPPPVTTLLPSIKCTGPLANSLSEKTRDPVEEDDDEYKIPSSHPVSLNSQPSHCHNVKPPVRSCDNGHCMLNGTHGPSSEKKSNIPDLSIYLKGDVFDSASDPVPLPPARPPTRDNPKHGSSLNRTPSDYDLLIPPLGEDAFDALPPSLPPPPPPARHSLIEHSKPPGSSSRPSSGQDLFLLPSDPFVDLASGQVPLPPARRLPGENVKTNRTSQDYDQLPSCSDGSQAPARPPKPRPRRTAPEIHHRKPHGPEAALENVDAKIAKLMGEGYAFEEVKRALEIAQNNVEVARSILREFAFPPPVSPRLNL

Structure (SMILES) | DC50 [1] | Dmax [2] | Dmax (THP-1)
Cn1cnnc1[C@@H](c1cccc(-n2cc3c(C(F)(F)F)cc(CN4CCC(OCCN5CCC(CN6CCN(c7ccc8c(c7)CN([C@@H]7CCC(=O)NC7=O)C8=O)CC6)CC5)CC4)cn3c2=O)c1)C1COC1 [Compound 57] | 1000 to 10000 nM | 50 to 70% | 
Cn1cnnc1[C@@H](c1cccc(-n2cc3c(C(F)(F)F)cc(CN4CC[C@H](OCCOCc5ccc(COCCNc6cccc7c6C(=O)N(C6CCC(=O)NC6=O)C7=O)cc5)C4)cn3c2=O)c1)C1CCC1 (stereo partly shown) [Compound 60] | 300 to 1000 nM | 30 to 50% | 
Cn1cnnc1CC1(c2cccc(-n3cc4c(C(F)(F)F)cc(CN5CCN(CCN6CCC(CN7CCN(c8ccc9c(c8)CN([C@H]8CCC(=O)NC8=O)C9=O)CC7)CC6)CC5)cn4c3=O)c2)COC1 [Compound 62] | 30 to 300 nM | > 70% | 
Cn1cnnc1[C@@H](c1cccc(-n2cc3c(C(F)(F)F)cc(CN4CCN(CCN5CCC(CN6CCN(c7ccc8c(c7)CN([C@@H]7CCC(=O)NC7=O)C8=O)CC6)CC5)CC4)cn3c2=O)c1)C1CCC1 [Compound 63] | 300 to 1000 nM | 30 to 50% | 
Cn1cnnc1[C@@H](c1cccc(N2Cc3c(cc(CN4CCC(OCCN5CCC(CN6CCN(c7ccc8c(c7)CN([C@@H]7CCC(=O)NC7=O)C8=O)CC6)CC5)CC4)cc3C(F)(F)F)C2=O)c1)C1CCC1 [Compound 65] | 300 to 1000 nM | 50 to 70% | 
Cn1cnnc1[C@@H](c1cccc(N2Cc3c(cc(CN4CCC(OCCN5CCC(CN6CCN(c7ccc8c(c7)CN([C@H]7CCC(=O)NC7=O)C8=O)CC6)CC5)CC4)cc3C(F)(F)F)C2=O)c1)C1CCC1 [Compound 66] | 30 to 300 nM |  | 50 to 70%
CO[C@H]1C[C@](c2cccc(-n3cc4c(C(F)(F)F)cc(CN5CCC(OCCN6CCC(CN7CCN(c8ccc9c(c8)CN([C@@H]8CCC(=O)NC8=O)C9=O)CC7)CC6)CC5)cn4c3=O)c2)(c2nncn2C)C1 [Compound 69] | 300 to 1000 nM | 30 to 50% | 
CO[C@H]1C[C@@](c2cccc(-n3cc4c(C(F)(F)F)cc(CN5CCC(OCCN6CCC(CN7CCN(c8ccc9c(c8)CN([C@@H]8CCC(=O)NC8=O)C9=O)CC7)CC6)CC5)cn4c3=O)c2)(c2nncn2C)C1 [Compound 73] | 1000 to 10000 nM | 30 to 50% | 
Cn1cnnc1CC1(c2cccc(N3Cc4c(cc(CN5CCC(OCCN6CCC(CN7CCN(c8ccc9c(c8)CN([C@H]8CCC(=O)NC8=O)C9=O)CC7)CC6)CC5)cc4C(F)(F)F)C3=O)c2)COC1 [Compound 76] | 30 to 300 nM | 50 to 70% | 
Cn1cnnc1CC1(c2cccc(-n3cc4c(C(F)(F)F)cc(CN5CCC[C@@H](OCc6ccc(CN7CCN(c8ccc9c(c8)CN(C8CCC(=O)NC8=O)C9=O)CC7)cc6)C5)cn4c3=O)c2)COC1 (stereo partly shown) [Compound 96] | 30 to 300 nM | 30 to 50% | 
Cn1cnnc1CC1(c2cccc(-n3cc4c(C(F)(F)F)cc(-c5nccn5CCOCCN5CCC(CN6CCN(c7ccc8c(c7)CN([C@@H]7CCC(=O)NC7=O)C8=O)CC6)CC5)cn4c3=O)c2)COC1 [Compound 99] | > 10000 nM | < 30% | 
Cn1cnnc1[C@@H](c1cccc(-n2cc3c(C(F)(F)F)cc(CN4CCC(COCc5ccc(CN6CCN(c7ccc8c(c7)CN([C@@H]7CCC(=O)NC7=O)C8=O)CC6)cc5)CC4)cn3c2=O)c1)C1CCC1 [Compound 101] | 30 to 300 nM |  | 50 to 70%
Cn1cnnc1[C@@H](c1cccc(-n2cc3c(C(F)(F)F)cc(CN4CCC(COCc5ccc(CN6CCN(c7ccc8c(c7)CN([C@H]7CCC(=O)NC7=O)C8=O)CC6)cc5)CC4)cn3c2=O)c1)C1CCC1 [Compound 102] | 30 to 300 nM | > 70% | 
CN(CCO[C@H]1CCCN(Cc2cc(C(F)(F)F)c3cn(-c4cccc([C@H](c5nncn5C)C5CCC5)c4)c(=O)n3c2)C1)C(=O)c1ccc(N2CCN(c3ccc4c(c3)CN([C@H]3CCC(=O)NC3=O)C4=O)CC2)cc1 [Compound 106] | 300 to 1000 nM |  | 
Cn1cnnc1CC1(c2cccc(-n3cc4c(C(F)(F)F)cc(CN5CC(OCCN6CCC(CN7CCN(c8ccc9c(c8)CN(C8CCC(=O)NC8=O)C9=O)CC7)CC6)C5)cn4c3=O)c2)COC1 (stereo not shown) [Compound 113] | > 10000 nM |  | < 30%
Cn1cnnc1[C@@H](c1cccc(-n2cc3c(C(F)(F)F)cc(CN4CC(OCCN5CCC(CN6CCN(c7ccc8c(c7)CN(C7CCC(=O)NC7=O)C8=O)CC6)CC5)C4)cn3c2=O)c1)C1CCC1 (stereo partly shown) [Compound 114] | > 10000 nM | < 30% | 
Cn1cnnc1[C@@H](c1cccc(-n2cc3c(C(F)(F)F)cc(CN4CCC(OCCc5ccc(CN6CCN(c7ccc8c(c7)CN([C@H]7CCC(=O)NC7=O)C8=O)CC6)cc5)CC4)cn3c2=O)c1)C1CCC1 [Compound 116] | < 30 nM | 50 to 70% | 
Cn1cnnc1[C@@H](c1cccc(-n2cc3c(C(F)(F)F)cc(CN4CCN(C(=O)CN5CCC(CN6CCN(c7ccc8c(c7)CN([C@@H]7CCC(=O)NC7=O)C8=O)CC6)CC5)CC4)cn3c2=O)c1)C1CCC1 [Compound 129] | > 10000 nM | < 30% | 

The next lines start with results.

DC50 [1] | Dmax [2] | Structure (SMILES) | Dmax (THP-1)
30 to 300 nM | > 70% | Cn1cnnc1[C@@H](c1cccc(-n2cc3c(C(F)(F)F)cc(CN4CCC(OCCN5CCC(CN6CCN(c7ccc8c(c7)CN([C@H]7CCC(=O)NC7=O)C8=O)CC6)CC5)CC4)cn3c2=O)c1)C1COC1 [Compound 58] | 
300 to 1000 nM | 30 to 50% | Cn1cnnc1[C@@H](c1cccc(-n2cc3c(C(F)(F)F)cc(CN4CC[C@@H](OCCOCc5ccc(COCCNc6cccc7c6C(=O)N(C6CCC(=O)NC6=O)C7=O)cc5)C4)cn3c2=O)c1)C1CCC1 (stereo partly shown) [Compound 59] | 
30 to 300 nM | 50 to 70% | CO[C@H]1C[C@](c2cccc(-n3cc4c(C(F)(F)F)cc(CN5CCC(OCCN6CCC(CN7CCN(c8ccc9c(c8)CN([C@H]8CCC(=O)NC8=O)C9=O)CC7)CC6)CC5)cn4c3=O)c2)(c2nncn2C)C1 [Compound 70] | 
1000 to 10000 nM | 50 to 70% | CO[C@H]1C[C@@](c2cccc(-n3cc4c(C(F)(F)F)cc(CN5CCC(OCCN6CCC(CN7CCN(c8ccc9c(c8)CN([C@H]8CCC(=O)NC8=O)C9=O)CC7)CC6)CC5)cn4c3=O)c2)(c2nncn2C)C1 [Compound 74] | 
< 30 nM |  | Cn1cnnc1[C@@H](c1cccc(-n2cc3c(C(F)(F)F)cc(CN4CCC[C@H](OCc5ccc(CN6CCN(c7ccc8c(c7)CN([C@H]7CCC(=O)NC7=O)C8=O)CC6)cc5)C4)cn3c2=O)c1)C1CCC1 [Compound 82] | 
30 to 300 nM |  | Cn1cnnc1[C@@H](c1cccc(-n2cc3c(C(F)(F)F)cc(CN4CCC[C@@H](OCc5ccc(CN6CCN(c7ccc8c(c7)CN(C7CCC(=O)NC7=O)C8=O)CC6)cc5)C4)cn3c2=O)c1)C1CCC1 (stereo partly shown) [Compound 95] | 
1000 to 10000 nM | 30 to 50% | Cn1cnnc1[C@@H](c1cccc(-n2cc3c(C(F)(F)F)cc(-c4nccn4CCOCCN4CCC(CN5CCN(c6ccc7c(c6)CN([C@@H]6CCC(=O)NC6=O)C7=O)CC5)CC4)cn3c2=O)c1)C1CCC1 [Compound 97] | 
30 to 300 nM |  | CN(CCO[C@@H]1CCCN(Cc2cc(C(F)(F)F)c3cn(-c4cccc([C@H](c5nncn5C)C5CCC5)c4)c(=O)n3c2)C1)C(=O)c1ccc(N2CCN(c3ccc4c(c3)CN([C@H]3CCC(=O)NC3=O)C4=O)CC2)cc1 [Compound 104] | 
30 to 300 nM |  | Cn1cnnc1[C@@H](c1cccc(-n2cc3c(C(F)(F)F)cc(CN4CCC(N5CCC(CN6CCN(c7ccc8c(c7)CN([C@H]7CCC(=O)NC7=O)C8=O)CC6)CC5)CC4)cn3c2=O)c1)C1CCC1 [Compound 136] | 
